Experimental data from ChEMBL document CHEMBL5303763, “Data for DCP probe BI-3802” (2023).
Activity calls are given as the source filed them. The calls are words filed in the database; no cut-off is given here.

What was measured:
[1] = molecular target: D(2) dopamine receptor (Homo sapiens) (UniProt P14416); experiment: D2SH_AGON Eurofins SafetyScreen44 (BI); details: filed as agonist, Compound concentration 10.0 uM
hERG (KCNH2) = hERG (KCNH2) (Homo sapiens, UniProt Q12809); experiment: HERG_DOFETILIDE Eurofins SafetyScreen44 (BI); details: probe [3H] Dofetilide, compound concentration 10 uM, read-out: % Ctrl
[2] = molecular target: Delta-type opioid receptor (Homo sapiens) (UniProt P41143); experiment: DELTA2/H Eurofins SafetyScreen44 (BI); details: Compound concentration 10.0 uM
[3] = molecular target: Sodium-dependent dopamine transporter (Homo sapiens) (UniProt Q01959); experiment: DATRANS/HUM Eurofins SafetyScreen44 (BI); details: Compound concentration 10.0 uM
[4] = molecular target: Cannabinoid receptor 2 (Homo sapiens) (UniProt P34972); experiment: CB2/PERIPH/H Eurofins SafetyScreen44 (BI); details: Compound concentration 10.0 uM
[5] = molecular target: Vasopressin V1a receptor (Homo sapiens) (UniProt P37288); experiment: V1A/HUM Eurofins SafetyScreen44 (BI); details: Compound concentration 10.0 uM
[6] = molecular target: Histamine H2 receptor (Homo sapiens) (UniProt P25021); experiment: H2/APT/HS Eurofins SafetyScreen44 (BI); details: filed as antagonist, Compound concentration 10.0 uM
[7] = molecular target: Sodium-dependent serotonin transporter (Homo sapiens) (UniProt P31645); experiment: SLC6A4/H Eurofins SafetyScreen44 (BI); details: filed as antagonist, Compound concentration 10.0 uM
[8] = molecular target: Muscarinic acetylcholine receptor M3 (Homo sapiens) (UniProt P20309); experiment: M3/H Eurofins SafetyScreen44 (BI); details: Compound concentration 10.0 uM
[9] = molecular target: Tyrosine-protein kinase Lck (Homo sapiens) (UniProt P06239); experiment: LCK_CE Eurofins SafetyScreen44 (BI); details: Compound concentration 10.0 uM
[10] = molecular target: Glucocorticoid receptor (Homo sapiens) (UniProt P04150); experiment: GCORTICOID/H Eurofins SafetyScreen44 (BI); details: Compound concentration 10.0 uM
[11] = molecular target: 5-hydroxytryptamine receptor 2A (Homo sapiens) (UniProt P28223); experiment: 5HT2AH_AGON Eurofins SafetyScreen44 (BI); details: filed as agonist, Compound concentration 10.0 uM
[12] = molecular target: Beta-1 adrenergic receptor (Homo sapiens) (UniProt P08588); experiment: BETA1/HUM Eurofins SafetyScreen44 (BI); details: Compound concentration 10.0 uM
[13] = molecular target: L-type Ca2+ channel (dihydropyridine site), Voltage-dependent L-type calcium channel subunit alpha-1C (Rattus norvegicus, UniProt P22002); experiment: CA+/DHPSI/R Eurofins SafetyScreen44 (BI); details: rat brain, probe [3H](+)PN200-110, compound concentration 10 uM, read-out: % Ctrl
[14] = molecular target: Neuronal acetylcholine receptor; alpha4/beta2 (Homo sapiens) (UniProt P17787+P43681); experiment: N_NEURO_A4B2 Eurofins SafetyScreen44 (BI); assay type: protein-complex assay; details: filed as agonist, Compound concentration 10.0 uM
[15] = molecular target: B-cell lymphoma 6 protein (Homo sapiens, UniProt P41182); experiment: BCL6:BCOR ULight TR-FRET
[16] = molecular target: T1, 5-hydroxytryptamine receptor 3A (Homo sapiens) (UniProt P46098); experiment: 5HT3/H Eurofins SafetyScreen44 (BI); details: Compound concentration 10.0 uM
T1 sequence (whole entry): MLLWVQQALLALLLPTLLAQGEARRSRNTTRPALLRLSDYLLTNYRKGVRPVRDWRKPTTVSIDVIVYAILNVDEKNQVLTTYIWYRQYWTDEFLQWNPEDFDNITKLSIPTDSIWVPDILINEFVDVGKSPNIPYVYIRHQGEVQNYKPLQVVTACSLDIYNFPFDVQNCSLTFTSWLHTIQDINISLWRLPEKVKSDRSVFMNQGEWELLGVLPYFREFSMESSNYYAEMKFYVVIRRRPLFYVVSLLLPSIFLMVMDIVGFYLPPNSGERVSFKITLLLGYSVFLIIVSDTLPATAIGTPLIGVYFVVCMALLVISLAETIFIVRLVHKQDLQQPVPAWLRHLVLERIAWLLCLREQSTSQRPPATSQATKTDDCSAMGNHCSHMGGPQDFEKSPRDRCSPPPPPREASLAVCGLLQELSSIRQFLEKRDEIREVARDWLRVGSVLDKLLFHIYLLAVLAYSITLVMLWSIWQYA

[17] = molecular target: Beta-2 adrenergic receptor (Homo sapiens) (UniProt P07550); experiment: BETA2/HUM Eurofins SafetyScreen44 (BI); details: filed as antagonist, Compound concentration 10.0 uM
[18] = molecular target: GABA-A receptor; anion channel (Rattus norvegicus) (UniProt O09028+P15431+P18506+P18508+P19969+P20236+P23574+P23576+P28471+P28473+P30191+P62813+P63079+P63138+Q91ZM7+Q9ES14); experiment: BZD/CENTR/R Eurofins SafetyScreen44 (BI); assay type: protein-complex assay; details: Compound concentration 10.0 uM
[19] = molecular target: Prostaglandin G/H synthase 2 (Homo sapiens) (UniProt P35354); experiment: COX-2 Eurofins SafetyScreen44 (BI); details: Compound concentration 10.0 uM
[20] = molecular target: Cholecystokinin receptor type A (Homo sapiens) (UniProt P32238); experiment: CCKA/H Eurofins SafetyScreen44 (BI); details: Compound concentration 10.0 uM
[21] = molecular target: Histamine H1 receptor (Homo sapiens) (UniProt P35367); experiment: H1/PYRIL/HS Eurofins SafetyScreen44 (BI); details: Compound concentration 10.0 uM
[22] = molecular target: voltage-gated Na+ channel (site 2) (Rattus norvegicus, UniProt F1LQQ7+O08562+O88420+O88457+P04774+P04775+P08104+P15389+P15390+Q62968); experiment: NA+/SITE2/R Eurofins SafetyScreen44 (BI); assay type: protein assay; details: rat brain, probe [3H]batrachotoxinin, compound concentration 10 uM, read-out: % Ctrl
[23] = molecular target: 3',5'-cyclic-AMP phosphodiesterase 4D (Homo sapiens) (UniProt Q08499); experiment: PDE4D2 Eurofins SafetyScreen44 (BI); details: Compound concentration 10.0 uM
[24] = molecular target: 5-hydroxytryptamine receptor 2B (Homo sapiens) (UniProt P41595); experiment: 5HT2B/H AG Eurofins SafetyScreen44 (BI); details: filed as agonist, Compound concentration 10.0 uM
[25] = molecular target: Endothelin-1 receptor (Homo sapiens) (UniProt P25101); experiment: ETA/H Eurofins SafetyScreen44 (BI); details: Compound concentration 10.0 uM
[26] = molecular target: Androgen receptor (Homo sapiens) (UniProt P10275); experiment: ANDROGEN/H Eurofins SafetyScreen44 (BI); details: Compound concentration 10.0 uM
[27] = molecular target: Glutamate NMDA receptor (Rattus norvegicus) (UniProt P35439+Q00959+Q00960+Q00961+Q62645+Q8VHN2+Q9R1M7); experiment: NMDA/R Eurofins SafetyScreen44 (BI); assay type: protein-complex assay; details: Compound concentration 10.0 uM
[28] = molecular target: Mu-type opioid receptor (Homo sapiens) (UniProt P35372); experiment: MU/H Eurofins SafetyScreen44 (BI); details: Compound concentration 10.0 uM
[29] = molecular target: Angiotensin-converting enzyme (Homo sapiens) (UniProt P12821); experiment: ACE(HU_AMTCH400) Eurofins SafetyScreen44 (BI); details: Compound concentration 10.0 uM
Chain of Angiotensin-converting enzyme (Homo sapiens) (P12821 whole entry): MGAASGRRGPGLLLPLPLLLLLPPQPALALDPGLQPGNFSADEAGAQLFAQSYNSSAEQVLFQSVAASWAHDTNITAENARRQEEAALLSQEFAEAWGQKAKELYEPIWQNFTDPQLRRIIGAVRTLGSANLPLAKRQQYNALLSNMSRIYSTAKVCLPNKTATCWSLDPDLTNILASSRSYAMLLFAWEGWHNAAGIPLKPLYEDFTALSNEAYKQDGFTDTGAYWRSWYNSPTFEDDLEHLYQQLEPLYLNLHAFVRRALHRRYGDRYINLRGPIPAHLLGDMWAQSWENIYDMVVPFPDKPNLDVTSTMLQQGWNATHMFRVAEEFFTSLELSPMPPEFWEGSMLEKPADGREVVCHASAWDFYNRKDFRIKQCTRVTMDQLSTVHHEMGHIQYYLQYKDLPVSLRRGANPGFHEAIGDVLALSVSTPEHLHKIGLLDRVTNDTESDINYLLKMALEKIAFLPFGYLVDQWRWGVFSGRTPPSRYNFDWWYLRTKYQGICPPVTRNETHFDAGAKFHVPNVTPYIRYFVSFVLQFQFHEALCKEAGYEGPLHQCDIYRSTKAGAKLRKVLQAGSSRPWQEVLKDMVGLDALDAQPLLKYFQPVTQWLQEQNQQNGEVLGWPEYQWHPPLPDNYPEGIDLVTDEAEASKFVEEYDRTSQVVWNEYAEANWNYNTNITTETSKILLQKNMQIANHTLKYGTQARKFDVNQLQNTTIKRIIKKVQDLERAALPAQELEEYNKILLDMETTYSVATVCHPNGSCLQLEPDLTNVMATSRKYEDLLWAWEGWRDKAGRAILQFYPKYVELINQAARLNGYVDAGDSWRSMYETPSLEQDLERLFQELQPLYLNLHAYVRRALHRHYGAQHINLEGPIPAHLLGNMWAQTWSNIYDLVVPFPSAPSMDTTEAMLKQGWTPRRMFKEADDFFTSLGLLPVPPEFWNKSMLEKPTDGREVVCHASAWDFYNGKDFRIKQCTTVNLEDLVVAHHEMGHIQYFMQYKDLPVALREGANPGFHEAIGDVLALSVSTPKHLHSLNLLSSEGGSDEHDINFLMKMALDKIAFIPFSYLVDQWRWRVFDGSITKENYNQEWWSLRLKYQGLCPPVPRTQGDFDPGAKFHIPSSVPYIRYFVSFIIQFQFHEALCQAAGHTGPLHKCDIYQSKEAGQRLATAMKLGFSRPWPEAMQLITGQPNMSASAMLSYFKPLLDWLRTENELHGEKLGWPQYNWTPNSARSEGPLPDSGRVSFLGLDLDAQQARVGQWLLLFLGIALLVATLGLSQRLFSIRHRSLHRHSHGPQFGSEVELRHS

Chain of Beta-2 adrenergic receptor (Homo sapiens) (P07550 whole entry, looked up): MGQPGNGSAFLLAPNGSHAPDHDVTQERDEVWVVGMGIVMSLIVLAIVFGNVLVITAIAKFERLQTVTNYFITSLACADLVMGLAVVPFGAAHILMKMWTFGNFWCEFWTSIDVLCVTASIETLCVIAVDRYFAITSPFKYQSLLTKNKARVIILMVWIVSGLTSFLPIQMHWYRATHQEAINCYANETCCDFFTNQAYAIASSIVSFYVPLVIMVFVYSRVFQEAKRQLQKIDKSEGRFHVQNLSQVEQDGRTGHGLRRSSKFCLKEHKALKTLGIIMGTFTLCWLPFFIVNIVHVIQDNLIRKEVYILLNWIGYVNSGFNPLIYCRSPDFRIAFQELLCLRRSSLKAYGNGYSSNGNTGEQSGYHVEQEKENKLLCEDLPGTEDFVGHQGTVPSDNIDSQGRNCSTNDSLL
Chain of Vasopressin V1a receptor (Homo sapiens) (P37288 whole entry, looked up): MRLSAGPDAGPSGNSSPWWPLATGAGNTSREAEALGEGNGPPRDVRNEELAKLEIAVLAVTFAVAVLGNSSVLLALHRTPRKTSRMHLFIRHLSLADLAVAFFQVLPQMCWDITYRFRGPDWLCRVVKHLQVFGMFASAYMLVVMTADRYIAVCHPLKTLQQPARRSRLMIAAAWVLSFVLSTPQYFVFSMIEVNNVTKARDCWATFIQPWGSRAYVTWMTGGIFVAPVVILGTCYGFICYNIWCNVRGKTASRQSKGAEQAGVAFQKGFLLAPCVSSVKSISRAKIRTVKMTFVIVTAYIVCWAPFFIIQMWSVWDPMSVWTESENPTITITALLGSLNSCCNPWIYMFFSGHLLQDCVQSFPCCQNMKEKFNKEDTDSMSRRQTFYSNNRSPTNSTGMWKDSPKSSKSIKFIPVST
Chain of Delta-type opioid receptor (Homo sapiens) (P41143 whole entry): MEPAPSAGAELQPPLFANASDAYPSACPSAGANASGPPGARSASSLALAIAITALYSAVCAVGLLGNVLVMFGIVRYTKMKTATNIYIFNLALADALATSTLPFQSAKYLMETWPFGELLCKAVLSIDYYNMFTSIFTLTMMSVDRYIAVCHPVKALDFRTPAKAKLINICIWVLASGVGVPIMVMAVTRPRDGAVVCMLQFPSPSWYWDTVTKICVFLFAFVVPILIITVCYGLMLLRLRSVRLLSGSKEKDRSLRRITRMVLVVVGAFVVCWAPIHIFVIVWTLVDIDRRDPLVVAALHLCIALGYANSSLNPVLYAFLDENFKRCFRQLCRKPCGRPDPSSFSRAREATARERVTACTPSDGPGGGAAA
Chain of Sodium-dependent serotonin transporter (Homo sapiens) (P31645 whole entry, looked up): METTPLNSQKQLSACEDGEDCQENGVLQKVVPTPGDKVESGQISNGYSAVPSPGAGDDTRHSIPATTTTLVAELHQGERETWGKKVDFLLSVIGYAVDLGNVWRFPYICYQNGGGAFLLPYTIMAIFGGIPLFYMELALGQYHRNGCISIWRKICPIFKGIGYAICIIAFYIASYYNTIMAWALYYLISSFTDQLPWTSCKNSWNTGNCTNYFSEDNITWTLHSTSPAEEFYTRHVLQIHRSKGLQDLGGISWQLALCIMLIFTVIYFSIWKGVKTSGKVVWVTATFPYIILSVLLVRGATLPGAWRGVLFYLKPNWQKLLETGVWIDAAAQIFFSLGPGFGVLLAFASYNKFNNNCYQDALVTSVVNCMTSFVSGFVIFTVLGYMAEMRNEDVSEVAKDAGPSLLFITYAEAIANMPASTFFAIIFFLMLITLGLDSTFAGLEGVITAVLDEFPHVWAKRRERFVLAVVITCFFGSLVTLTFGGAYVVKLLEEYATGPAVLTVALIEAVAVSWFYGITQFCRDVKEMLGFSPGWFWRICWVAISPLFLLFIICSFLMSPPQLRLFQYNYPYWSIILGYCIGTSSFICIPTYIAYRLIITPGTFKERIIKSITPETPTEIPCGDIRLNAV
Chain of Cannabinoid receptor 2 (Homo sapiens) (P34972 whole entry): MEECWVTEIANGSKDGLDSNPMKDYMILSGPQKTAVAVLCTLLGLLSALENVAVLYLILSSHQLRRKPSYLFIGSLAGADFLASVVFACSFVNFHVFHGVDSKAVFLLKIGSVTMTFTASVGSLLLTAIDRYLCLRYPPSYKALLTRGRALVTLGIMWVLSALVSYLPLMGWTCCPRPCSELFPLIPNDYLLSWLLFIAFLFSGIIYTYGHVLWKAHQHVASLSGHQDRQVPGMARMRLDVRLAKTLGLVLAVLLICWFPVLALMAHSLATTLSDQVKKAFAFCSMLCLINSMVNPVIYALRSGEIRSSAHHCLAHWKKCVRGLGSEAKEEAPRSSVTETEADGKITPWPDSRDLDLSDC
Chain of Glucocorticoid receptor (Homo sapiens) (P04150 whole entry): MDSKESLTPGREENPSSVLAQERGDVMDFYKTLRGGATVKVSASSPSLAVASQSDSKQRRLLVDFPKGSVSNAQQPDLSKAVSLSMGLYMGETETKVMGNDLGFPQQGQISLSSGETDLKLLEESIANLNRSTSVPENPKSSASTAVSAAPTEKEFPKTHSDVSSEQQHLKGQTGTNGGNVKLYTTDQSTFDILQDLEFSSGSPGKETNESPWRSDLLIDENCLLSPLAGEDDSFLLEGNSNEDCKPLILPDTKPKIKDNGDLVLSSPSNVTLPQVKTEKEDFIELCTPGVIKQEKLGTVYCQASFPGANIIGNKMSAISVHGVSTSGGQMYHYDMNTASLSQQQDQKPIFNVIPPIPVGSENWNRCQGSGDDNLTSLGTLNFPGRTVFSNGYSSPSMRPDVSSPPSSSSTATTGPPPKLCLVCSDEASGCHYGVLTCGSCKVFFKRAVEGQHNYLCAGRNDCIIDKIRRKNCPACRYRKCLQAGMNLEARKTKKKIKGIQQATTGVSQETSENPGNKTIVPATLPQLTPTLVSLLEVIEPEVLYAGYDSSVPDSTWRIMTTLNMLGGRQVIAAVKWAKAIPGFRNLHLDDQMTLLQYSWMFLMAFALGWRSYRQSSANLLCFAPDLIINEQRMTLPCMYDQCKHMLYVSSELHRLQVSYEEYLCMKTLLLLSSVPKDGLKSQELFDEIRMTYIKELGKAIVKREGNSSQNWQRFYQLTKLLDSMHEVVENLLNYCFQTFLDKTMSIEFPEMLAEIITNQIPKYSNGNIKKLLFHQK
Chain of Cholecystokinin receptor type A (Homo sapiens) (P32238 whole entry): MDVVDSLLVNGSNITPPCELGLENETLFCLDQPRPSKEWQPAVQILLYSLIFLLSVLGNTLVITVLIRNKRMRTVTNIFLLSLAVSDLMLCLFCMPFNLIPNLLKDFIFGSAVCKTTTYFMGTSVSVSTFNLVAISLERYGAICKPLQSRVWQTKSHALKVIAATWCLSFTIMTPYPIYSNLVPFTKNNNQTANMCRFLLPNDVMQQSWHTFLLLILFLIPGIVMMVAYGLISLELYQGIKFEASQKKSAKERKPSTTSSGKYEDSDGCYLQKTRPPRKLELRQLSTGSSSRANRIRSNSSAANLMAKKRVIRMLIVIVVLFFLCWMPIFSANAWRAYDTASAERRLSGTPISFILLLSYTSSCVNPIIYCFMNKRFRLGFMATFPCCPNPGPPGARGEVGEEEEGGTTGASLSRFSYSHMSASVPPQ

| Structure (SMILES) | residual activity [1] | activity at 10 µM (hERG (KCNH2)) | residual activity [2] | residual activity [3] | residual activity [4] | residual activity [5] | residual activity [6] | residual activity [7] | residual activity [8] | residual activity [9] | residual activity [10] | residual activity [11] | residual activity [12] | activity at 10 µM [13] | residual activity [14] | IC50 [15] | residual activity [16] | residual activity [17] | residual activity [18] | residual activity [19] | other results |
| --- | --- | --- | --- | --- | --- | --- | --- | --- | --- | --- | --- | --- | --- | --- | --- | --- | --- | --- | --- | --- | --- |
| C[C@@H]1C[C@H](C)CN(c2ncc(Cl)c(Nc3ccc4c(c3)cc(OC(C)(C)C(=O)O)c(=O)n4C)n2)C1 | 86% | 95% (not active) | 97% | 100% | 103% | 97% | 121% | 91% | 111% | 87% | 97% | 125% | 99% | 104% (not active) | 106% | 10.2 µM (not active) | 95% | 89% | 147% | 75% | residual activity [20]: 137%; residual activity [21]: 86%; activity at 10 µM [22]: 88% (not active); residual activity [23]: 87%; residual activity [24]: 159%; residual activity [25]: 111%; residual activity [26]: 104%; residual activity [27]: 88%; residual activity [28]: 44%; residual activity [29]: 111% |
| CNC(=O)COc1cc2cc(Nc3nc(N4C[C@H](C)C[C@H](C)C4)ncc3Cl)ccc2n(C)c1=O | 115% | 76% (not active) | 100% | 88% | 96% | 85% | 110% | 104% | 110% | 114% | 99% | 112% | 99% | 99% (not active) | 107% | ≤ 0.003 µM (active) | 101% | 101% | 97% | 88% | residual activity [20]: 100%; residual activity [21]: 105%; activity at 10 µM [22]: 114% (not active); residual activity [23]: 100%; residual activity [24]: 12%; residual activity [25]: 100%; residual activity [26]: 103%; residual activity [27]: 78%; residual activity [28]: 81%; residual activity [29]: 106% |
